According to PubChem BioAssay (NCI):
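Tested at 5 concentrations; 48 h exposure; 96-well plates; endpoints linearly interpolated, else capped at highest concentration. GI50 = concentration required for 50% inhibition of growth. The concentration for full growth arrest is given as TGI.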

Experiments:
Assay in all cases: NCI tumour cell line growth inhibition, 48 h
HS 578T breast = test system: HS 578T breast
PC-3 prostate = test system: PC-3 prostate
A549 NSCLC = test system: A549 NSCLC
T-47D breast = test system: T-47D breast
OVCAR-4 ovarian = test system: OVCAR-4 ovarian
786-0 renal = test system: 786-0 renal
U251 CNS = test system: U251 CNS
RPMI-8226 leukemia = test system: RPMI-8226 leukemia
HCT-116 colon = test system: HCT-116 colon
OVCAR-8 ovarian = test system: OVCAR-8 ovarian
SK-MEL-5 melanoma = test system: SK-MEL-5 melanoma
MOLT-4 leukemia = test system: MOLT-4 leukemia
RXF 393 renal = test system: RXF 393 renal
IGROV1 ovarian = test system: IGROV1 ovarian
UO-31 renal = test system: UO-31 renal
HCT-15 colon = test system: HCT-15 colon
CAKI-1 renal = test system: CAKI-1 renal
BT-549 breast = test system: BT-549 breast
ACHN renal = test system: ACHN renal
NCI-H23 lung = test system: NCI-H23 lung
NCI-H226 lung = test system: NCI-H226 lung
NCI/ADR-RES ovarian = test system: NCI/ADR-RES ovarian
OVCAR-3 ovarian = test system: OVCAR-3 ovarian
MDA-MB-231 breast = test system: MDA-MB-231 breast
SK-MEL-28 melanoma = test system: SK-MEL-28 melanoma
SN12C renal = test system: SN12C renal
DU-145 prostate = test system: DU-145 prostate
SK-OV-3 ovarian = test system: SK-OV-3 ovarian
MCF7 breast = test system: MCF7 breast
NCI-H522 lung = test system: NCI-H522 lung
HCC-2998 colon = test system: HCC-2998 colon
HOP-92 NSCLC = test system: HOP-92 NSCLC
NCI-H460 lung = test system: NCI-H460 lung
COLO 205 colon = test system: COLO 205 colon
CCRF-CEM leukemia = test system: CCRF-CEM leukemia
MDA-MB-435 = test system: MDA-MB-435
LOX IMVI melanoma = test system: LOX IMVI melanoma
TK-10 renal = test system: TK-10 renal
UACC-62 melanoma = test system: UACC-62 melanoma
HOP-62 NSCLC = test system: HOP-62 NSCLC
A498 renal = test system: A498 renal
SF-539 CNS = test system: SF-539 CNS
SW-620 colon = test system: SW-620 colon
KM12 colon = test system: KM12 colon
SK-MEL-2 melanoma = test system: SK-MEL-2 melanoma
K-562 leukemia = test system: K-562 leukemia
SF-295 CNS = test system: SF-295 CNS
SNB-75 CNS = test system: SNB-75 CNS
HT29 colon = test system: HT29 colon
SF-268 CNS = test system: SF-268 CNS
HL-60(TB) leukemia = test system: HL-60(TB) leukemia
EKVX NSCLC = test system: EKVX NSCLC
SR leukemia = test system: SR leukemia
UACC-257 melanoma = test system: UACC-257 melanoma
OVCAR-5 ovarian = test system: OVCAR-5 ovarian
MALME-3M melanoma = test system: MALME-3M melanoma
SNB-19 CNS = test system: SNB-19 CNS
M14 melanoma = test system: M14 melanoma

CCOc1ccc(C(=O)Nc2ncc(Cc3ccc(F)cc3)s2)cc1
GI50 (HS 578T breast): 399 nM
TGI (HS 578T breast): > 39300 nM
GI50 (PC-3 prostate): 169 nM
TGI (PC-3 prostate): > 100000 nM
GI50 (A549 NSCLC): 257 nM
TGI (A549 NSCLC): > 100000 nM
GI50 (T-47D breast): 248 nM
TGI (T-47D breast): > 100000 nM
GI50 (OVCAR-4 ovarian): 1630 nM
TGI (OVCAR-4 ovarian): > 100000 nM
GI50 (786-0 renal): 340 nM
TGI (786-0 renal): > 54500 nM
GI50 (U251 CNS): 230 nM
TGI (U251 CNS): > 62600 nM
GI50 (RPMI-8226 leukemia): 157 nM
TGI (RPMI-8226 leukemia): > 100000 nM
GI50 (HCT-116 colon): 93 nM
TGI (HCT-116 colon): > 100000 nM
GI50 (OVCAR-8 ovarian): 376 nM
TGI (OVCAR-8 ovarian): > 52300 nM
GI50 (SK-MEL-5 melanoma): 322 nM
TGI (SK-MEL-5 melanoma): > 100000 nM
GI50 (MOLT-4 leukemia): 151 nM
TGI (MOLT-4 leukemia): > 100000 nM
GI50 (RXF 393 renal): 151 nM
TGI (RXF 393 renal): 672 nM
GI50 (IGROV1 ovarian): 409 nM
TGI (IGROV1 ovarian): > 100000 nM
GI50 (UO-31 renal): 350 nM
TGI (UO-31 renal): > 66500 nM
GI50 (HCT-15 colon): 49.4 nM
TGI (HCT-15 colon): > 100000 nM
GI50 (CAKI-1 renal): 74.9 nM
TGI (CAKI-1 renal): > 44200 nM
GI50 (BT-549 breast): 1730 nM
TGI (BT-549 breast): > 100000 nM
GI50 (ACHN renal): 455 nM
TGI (ACHN renal): > 100000 nM
GI50 (NCI-H23 lung): 466 nM
TGI (NCI-H23 lung): > 100000 nM
GI50 (NCI-H226 lung): 319 nM
TGI (NCI-H226 lung): 7630 nM
GI50 (NCI/ADR-RES ovarian): 117 nM
TGI (NCI/ADR-RES ovarian): > 100000 nM
GI50 (OVCAR-3 ovarian): 162 nM
TGI (OVCAR-3 ovarian): > 22200 nM
GI50 (MDA-MB-231 breast): 371 nM
TGI (MDA-MB-231 breast): > 86100 nM
GI50 (SK-MEL-28 melanoma): 1230 nM
TGI (SK-MEL-28 melanoma): > 100000 nM
GI50 (SN12C renal): 345 nM
TGI (SN12C renal): > 100000 nM
GI50 (DU-145 prostate): 387 nM
TGI (DU-145 prostate): > 100000 nM
GI50 (SK-OV-3 ovarian): 289 nM
TGI (SK-OV-3 ovarian): > 64900 nM
GI50 (MCF7 breast): 53.7 nM
TGI (MCF7 breast): > 100000 nM
GI50 (NCI-H522 lung): 78.1 nM
TGI (NCI-H522 lung): 375 nM
GI50 (HCC-2998 colon): 213 nM
TGI (HCC-2998 colon): > 100000 nM
GI50 (HOP-92 NSCLC): 8750 nM
TGI (HOP-92 NSCLC): > 86100 nM
GI50 (NCI-H460 lung): 113 nM
TGI (NCI-H460 lung): > 100000 nM
GI50 (COLO 205 colon): 164 nM
GI50 (CCRF-CEM leukemia): 108 nM
TGI (CCRF-CEM leukemia): > 52700 nM
GI50 (MDA-MB-435): 22.1 nM
TGI (MDA-MB-435): 55.1 nM
GI50 (LOX IMVI melanoma): 145 nM
TGI (LOX IMVI melanoma): > 100000 nM
GI50 (TK-10 renal): 29300 nM
TGI (TK-10 renal): > 75900 nM
GI50 (UACC-62 melanoma): 107 nM
TGI (UACC-62 melanoma): > 100000 nM
GI50 (HOP-62 NSCLC): 309 nM
TGI (HOP-62 NSCLC): > 50000 nM
GI50 (A498 renal): > 34000 nM
TGI (A498 renal): > 90500 nM
GI50 (SF-539 CNS): 161 nM
TGI (SF-539 CNS): 2750 nM
GI50 (SW-620 colon): 77.8 nM
TGI (SW-620 colon): > 100000 nM
GI50 (KM12 colon): 83.6 nM
TGI (KM12 colon): > 100000 nM
GI50 (SK-MEL-2 melanoma): 117 nM
GI50 (K-562 leukemia): 44.3 nM
TGI (K-562 leukemia): > 100000 nM
GI50 (SF-295 CNS): 144 nM
TGI (SF-295 CNS): > 33000 nM
GI50 (SNB-75 CNS): 69.3 nM
TGI (SNB-75 CNS): 3440 nM
GI50 (HT29 colon): 77.1 nM
GI50 (SF-268 CNS): 4610 nM
TGI (SF-268 CNS): > 91900 nM
GI50 (HL-60(TB) leukemia): 52 nM
TGI (HL-60(TB) leukemia): 4680 nM
GI50 (EKVX NSCLC): 347 nM
TGI (EKVX NSCLC): > 100000 nM
GI50 (SR leukemia): 34.4 nM
TGI (SR leukemia): > 100000 nM
TGI (UACC-257 melanoma): > 100000 nM
GI50 (OVCAR-5 ovarian): 387 nM
TGI (OVCAR-5 ovarian): > 100000 nM
GI50 (MALME-3M melanoma): 1130 nM
TGI (MALME-3M melanoma): > 100000 nM
GI50 (SNB-19 CNS): 402 nM
TGI (SNB-19 CNS): > 100000 nM
GI50 (M14 melanoma): 94.1 nM
TGI (M14 melanoma): > 100000 nM
